Tests used:
[1] = tested on: cardiac allografts; assay: Heterotopic cardiac allograft transplantation in mice: graft beating score, toxicity, body weight; format: in vivo
Description: In studies performed in support of the present methods, hearts of FVB mice (H-2^q) were transplanted into C57BL/6 mice (H-2^b) to provide an animal model for allograft transplantation. Following transplantation, an isozyme-specific εPKC inhibitor was administered to the transplant recipients. The particular inhibitor was TAT47-57-εV1-2 (i.e., εV1-2), which is described herein.
The εPKC-specific inhibitor, εV1-2, or the carrier/control peptide, TAT, was administered to the recipient animals using osmotic pumps to provide continuous treatment from day 3 following allograft transplantation until sacrifice on day 30. All animals were given 20 mg/kg/day of cyclosporine A (CyA) to ensure survival.
Male […] (H-2^q) and C57BL/6J (H-2^b) mice, 6-8 weeks old, were purchased from Jackson Laboratory (Bar Harbor, Me.) and housed at the animal facility at Stanford University Medical Center (Stanford, Calif.). The εVB mice were used as allograft donors and the C57BL/6J mice were used as recipients. […]
Allograft recipient mice were monitored daily. Graft viability was assessed by direct abdominal palpation of the heterotopically transplanted hearts and expressed as beating score, assessed by the Stanford cardiac surgery lab graft scoring system (Tanaka, M. et al. (2004) Circulation 110:II194-9).

[2] = biological target: T1, εPKC (Rattus norvegicus, UniProt P09216); details: from cited literature; cited from earlier work
T1 sequence (P09216 1-737): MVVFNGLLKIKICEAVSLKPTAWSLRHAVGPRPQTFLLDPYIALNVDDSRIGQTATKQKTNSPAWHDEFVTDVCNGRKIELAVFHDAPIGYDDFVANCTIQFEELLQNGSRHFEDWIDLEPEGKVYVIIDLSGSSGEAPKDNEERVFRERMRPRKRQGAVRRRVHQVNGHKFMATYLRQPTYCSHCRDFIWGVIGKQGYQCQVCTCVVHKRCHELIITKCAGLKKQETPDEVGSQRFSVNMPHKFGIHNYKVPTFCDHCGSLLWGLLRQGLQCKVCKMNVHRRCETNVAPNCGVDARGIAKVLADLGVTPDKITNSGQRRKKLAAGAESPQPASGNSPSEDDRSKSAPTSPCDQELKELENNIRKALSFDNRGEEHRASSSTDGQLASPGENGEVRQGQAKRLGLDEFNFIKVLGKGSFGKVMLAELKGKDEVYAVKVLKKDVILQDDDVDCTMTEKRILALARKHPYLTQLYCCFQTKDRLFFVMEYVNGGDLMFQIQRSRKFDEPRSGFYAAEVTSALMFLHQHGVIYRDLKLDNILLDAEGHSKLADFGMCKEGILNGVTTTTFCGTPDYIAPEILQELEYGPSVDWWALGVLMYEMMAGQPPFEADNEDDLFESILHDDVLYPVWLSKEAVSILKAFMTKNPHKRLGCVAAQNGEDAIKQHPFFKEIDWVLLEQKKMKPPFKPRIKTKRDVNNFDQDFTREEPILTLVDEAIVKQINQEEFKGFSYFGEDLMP

Compound | toxic effects ([1]; allograft recipient mice treated day 3-30, compared to TAT-treated group) | body weight ([1]; allograft recipient mice, Mean±SEM) | function on εPKC (agonist / antagonist) [2]
CC(C)C[C@H](NC(=O)[C@H](CO)NC(=O)[C@@H](NC(=O)[C@H](C)NC(=O)[C@H](CCC(=O)O)NC(=O)[C@@H](N)CSSC[C@H](N)C(=O)N[C@@H](Cc1ccc(O)cc1)C(=O)NCC(=O)N[C@@H](CCCNC(=N)N)C(=O)N[C@@H](CCCCN)C(=O)N[C@@H](CCCCN)C(=O)N[C@@H](CCCNC(=N)N)C(=O)N[C@@H](CCCNC(=N)N)C(=O)N[C@@H](CCC(N)=O)C(=O)N[C@@H](CCCNC(=N)N)C(=O)N[C@@H](CCCNC(=N)N)C(=O)N[C@@H](CCCNC(=N)N)C(=O)O)C(C)C)C(=O)N[C@@H](CCCCN)C(=O)N1CCC[C@H]1C(=O)N[C@H](C(=O)O)[C@@H](C)O [εV1-2] | did not demonstrate toxic effects | 21.7 ± 0.9 g | 
HNAPIGYD |  |  | functioned as a εPKC antatgonist/inhibitor
ψεRACK: peptide HDAPIGYD (εPKC 85-92; SEQ ID NO: 9), εPKC-selective agonist |  |  | functioned as a εPKC-selective agonist
